17 compounds from ChEMBL document CHEMBL5321211, “Synthesis and evaluation of anti-yellow fever virus activity of new 6-aryl-3-R-amino-1,2,4-triazin-5(4H)-ones” (Eur J Med Chem, 2023) can be followed below.

pEC50: −log10 of the molar value.

The subject of one data set is Yellow fever virus. The experiment in a line: Antiviral activity against Yellow fever virus. The class given is functional, organism-based.
Conditions: not given
One may read the pEC50 as the negative decadic logarithm of the EC50, by convention in mol/L. `NC(=O)c1nc(F)cnc1O` [FAVIPIRAVIR]: the pEC50 is 3.48.

Tested on in another data set: not listed separately
The experiment in a line: Cytotoxicity against African green monkey Vero cells assessed as inhibition of cell growth by neutral red uptake assay. In kind it is toxicity, cell-based, Chlorocebus sabaeus.
Conditions: not given
In general, IC50 refers to the midpoint of a concentration-inhibition curve. Turning to `O=c1[nH]c(Nc2ccc(F)cc2)nnc1Cc1ccc(F)cc1`, the IC50 was over 100 µg/mL.

`CC(C)c1ccc(Cc2nnc(NCCN3CCOCC3)[nH]c2=O)cc1`: the IC50 is over 100 µg/mL.

As to `CCOc1ccc(Nc2nnc(Cc3ccc(C)cc3)c(=O)[nH]2)cc1`, the IC50 is over 100 µg/mL. On to `CCOC(=O)c1ccc(Nc2nnc(Cc3ccc(C)cc3)c(=O)[nH]2)cc1`, for which the IC50 was over 100 µg/mL.

As for `COc1ccc(Nc2nnc(Cc3ccc(C(C)C)cc3)c(=O)[nH]2)cc1OC`, the IC50 was over 38 µg/mL. On the same count and under the same terms, with `CCOc1ccccc1Nc1nnc(Cc2ccc(C)cc2)c(=O)[nH]1` the figure was over 100 µg/mL. On the same count and under the same terms, with `Cc1cccc(Nc2nnc(Cc3ccc(F)cc3)c(=O)[nH]2)c1C` the figure was over 100 µg/mL; with `Cc1ccc(Cc2nn3c(=O)c4ccccc4nc3[nH]c2=O)cc1`, over 100 µg/mL; with `CC(=O)Nc1ccc(Nc2nnc(Cc3ccc(C)cc3)c(=O)[nH]2)cc1`, over 100 µg/mL.

On to `COC(=O)c1ccc(Nc2nnc(Cc3ccc(C)cc3)c(=O)[nH]2)cc1`, for which the IC50 is over 100 µg/mL.

Tested on in a further data set: not listed separately
The experiment in a line: Selectivity index, ratio of CC50 for cytotoxicity against human A549 cells to EC50 for antiviral activity against Yellow fever virus infected in human A549 cells assessed as reduction in virus replication. In kind it is toxicity, cell-based. The conditions noted are these: read-out: Ratio CC50/EC50.
Take `O=C1OC2(c3ccccc31)c1cc(I)c(O)c(I)c1Oc1c2cc(I)c(O)c1I` [ERYTHROSINE]: the selectivity ratio is over 263.

Tested on in another data set: not listed separately
Nature of the data set: Selectivity index, ratio of CC50 for cytotoxicity against human Huh-7 cells to EC50 for antiviral activity against wild typeYellow fever virus infected in human Huh-7 cells assessed as reduction in virus replication. The class given is toxicity, cell-based. The conditions noted are these: read-out: Ratio CC50/EC50.
Take `NC(=O)c1ncn([C@@H]2O[C@H](CO)[C@@H](O)[C@H]2O)n1` [RIBAVIRIN]: the selectivity ratio was determined as 58. The same measure, in the same setting: with `CC(C)OC(=O)[C@H](C)N[P@](=O)(OC[C@H]1O[C@@H](n2ccc(=O)[nH]c2=O)[C@](C)(F)[C@@H]1O)Oc1ccccc1` [SOFOSBUVIR] the figure was 90.

The test system of another data set is Yellow fever virus. The experiment in a line: Antiviral activity against Yellow fever virus assessed as reduction in cytopathic effect by neutral red uptake assay. In kind it is functional, organism-based.
Conditions: not given
Take `NC(=O)C1(N2CCCCC2)CCN(C(=O)CSc2nc3ccccc3o2)CC1`: the pEC50 was 5.13.

The subject of the next data set is Yellow fever virus. Nature of the data set: Antiviral activity against wild typeYellow fever virus infected in human Huh-7 cells assessed as reduction in virus replication. The class given is functional, organism-based.
Conditions: not given
Consider `NC(=O)c1ncn([C@@H]2O[C@H](CO)[C@@H](O)[C@H]2O)n1` [RIBAVIRIN], for which the pEC50 is 5.31.

`CC(C)OC(=O)[C@H](C)N[P@](=O)(OC[C@H]1O[C@@H](n2ccc(=O)[nH]c2=O)[C@](C)(F)[C@@H]1O)Oc1ccccc1` [SOFOSBUVIR]: the pEC50 was 5.38.

Another data set relates to Yellow fever virus. The experiment in a line: Antiviral activity against Yellow fever virus 17D infected in African green monkey Vero assessed as reduction in cytopathic effect preincubated with compound for 5 mins followed by viral infection and measured at 72 to 120 hrs by neutral red uptake assay. The class given is functional, organism-based.
Conditions: not given
On the technique in general: Protection from cytopathic effect is a common read-out in antiviral testing.
What is called EC50 is the concentration that produces a half-maximal response. Consider `O=c1[nH]c(Nc2ccc(F)cc2)nnc1Cc1ccc(F)cc1`, for which the EC50 is over 100 µg/mL. Take `CC(C)c1ccc(Cc2nnc(NCCN3CCOCC3)[nH]c2=O)cc1`: the EC50 was over 100 µg/mL. Same read-out and setting: with `CCOc1ccc(Nc2nnc(Cc3ccc(C)cc3)c(=O)[nH]2)cc1` the figure was over 100 µg/mL; with `CCOC(=O)c1ccc(Nc2nnc(Cc3ccc(C)cc3)c(=O)[nH]2)cc1`, over 100 µg/mL; with `COc1ccc(Nc2nnc(Cc3ccc(C(C)C)cc3)c(=O)[nH]2)cc1OC`, over 38 µg/mL. Same read-out and setting: with `CCOc1ccccc1Nc1nnc(Cc2ccc(C)cc2)c(=O)[nH]1` the figure was over 100 µg/mL. Still for that read-out and setting: with `Cc1cccc(Nc2nnc(Cc3ccc(F)cc3)c(=O)[nH]2)c1C` the figure was over 100 µg/mL; with `Cc1ccc(Cc2nn3c(=O)c4ccccc4nc3[nH]c2=O)cc1`, over 100 µg/mL; with `CC(=O)Nc1ccc(Nc2nnc(Cc3ccc(C)cc3)c(=O)[nH]2)cc1`, over 100 µg/mL.

For the compound `COC(=O)c1ccc(Nc2nnc(Cc3ccc(C)cc3)c(=O)[nH]2)cc1`, the EC50 is over 100 µg/mL.

The next data set concerns Yellow fever virus. Nature of the data set: Antiviral activity against Yellow fever virus 17D assessed as reduction in cytopathic effect incubated for 30 mins. The class given is functional, organism-based. The conditions noted are these: 0.5 h.
Turning to `C/C(=N\Nc1ccccc1)c1sc(-c2cc(Cl)nc(Oc3ccc(Cl)cc3)c2)nc1C`, the pEC50 was 5.80.

Another data set concerns Yellow fever virus. Nature of the data set: Antiviral activity against Yellow fever virus infected in human A549 cells assessed as reduction in virus replication.
Conditions: not given
In kind it is functional, organism-based.
As for `O=C1OC2(c3ccccc31)c1cc(I)c(O)c(I)c1Oc1c2cc(I)c(O)c1I` [ERYTHROSINE], the pEC50 was 6.24.

For a further data set, the system named is Yellow fever virus. Nature of the data set: Antiviral activity against Yellow fever virus African green monkey Vero cells assessed as reduction in cytopathic effect. The class given is functional, organism-based.
Conditions: not given
In the case of `Nc1c(C(=O)Nc2nnc(-c3ccccc3)s2)sc2nc3c(cc12)CCCCC3`, the pEC50 is 5.16.
